In patent publication US20080058213A1, “Benzoxazole Compounds” (priority 2004, published 2008):

Columns and labels:
Type in all cases: in vivo
wheat [1] = assay: Foliage treatment test for upland field (Test Example 3): phytotoxicity to wheat; settings: foliage treatment at 1.0-2.0 leaf stage of southern crabgrass, examined after 3 weeks
Procedure: (§1) Evaluation of phytotoxicity is shown in the following six grades, as compared with the condition of untreated control: • 0: normal growth • 1: little damaged • 2: low damaged • 3: medium damaged • 4: serious damaged • 5: complete killed.
(§2) Compost mixed soil was filled in 1/3,000 are pots, seeded with southern crabgrass, common lambsquaters, slender amaranth, common purslane, velvetleaf, wheat, corn and soybean. The seeds were covered up with the soil and cultured in a glasshouse kept at 25° C. on the average.
(§3) After placing the test pots in a grasshouse kept at 25° C. on the average for 3 weeks, the herbicidal effect was examined.

velvetleaf = assay: Foliage treatment test for upland field (Test Example 3): velvetleaf; settings: foliage treatment at 1.0-2.0 leaf stage of southern crabgrass, examined after 3 weeks
Text: (§4) Evaluation of the herbicidal effect is shown in the following six grades, by comparing the condition of untreated control and growth inhibition (%): • 0: 0%-less than 20% • 1: 20%-less than 40% • 2: 40%-less than 60% • 3: 60%-less than 80% • 4: 80%-less than 100% • 5: 100%.
as §2
(§5) Wettable powders containing the object compounds (1) as identified in Table 1, which were formulated following Preparation Example 2, were diluted with water to the prescribed dose of the active ingredient, and uniformly sprayed onto the weeds at 1.0-2.0 leaf stage of the southern crabgrass at an application water of 15 liters per are.
as §3
(§6) Evaluation of the herbicidal effect was conducted in the similar manner to Test Example 1.

common purslane = assay: Foliage treatment test for upland field (Test Example 3): common purslane; settings: foliage treatment at 1.0-2.0 leaf stage of southern crabgrass, examined after 3 weeks
Text: as §4, §2, §5, §3, §6

soybean [2] = assay: Foliage treatment test for upland field (Test Example 3): phytotoxicity to soybean; settings: foliage treatment at 1.0-2.0 leaf stage of southern crabgrass, examined after 3 weeks
Procedure: as §1, §2, §3

southern crabgrass = assay: Foliage treatment test for upland field (Test Example 3): southern crabgrass; settings: foliage treatment at 1.0-2.0 leaf stage of southern crabgrass, examined after 3 weeks
Text: as §4, §2, §5, §3, §6

slender amaranth = assay: Foliage treatment test for upland field (Test Example 3): slender amaranth; settings: foliage treatment at 1.0-2.0 leaf stage of southern crabgrass, examined after 3 weeks
Text: as §4, §2, §5, §3, §6

corn [3] = assay: Foliage treatment test for upland field (Test Example 3): phytotoxicity to corn; settings: foliage treatment at 1.0-2.0 leaf stage of southern crabgrass, examined after 3 weeks
Procedure: as §1, §2, §3

common lambsquaters = assay: Foliage treatment test for upland field (Test Example 3): common lambsquaters; settings: foliage treatment at 1.0-2.0 leaf stage of southern crabgrass, examined after 3 weeks
Text: as §4, §2, §5, §3, §6

soybean [4] = assay: Soil treatment test for upland field (Test Example 2): phytotoxicity to soybean; settings: soil treatment before germination, examined after 3 weeks
Text: as §1
(§7) Upland field soil was filled in 1/3,000 are pots, seeded with southern crabgrass (Digitaria ciliaris), common lambsquaters (Chenopodium album), slender amaranth (Amaranthus viridis), common purslane (Portulaca oleracea), velvetleaf (Abutilon theophrasti), wheat, corn and soybean. The seeds were covered up with the soil.
(§8) After placing the test pots in a glasshouse which was kept at an average temperature of 25° C. for 3 weeks, the herbicidal effect was examined.

[5] = system: common lambsquaters (Chenopodium album); assay: Soil treatment test for upland field (Test Example 2): common lambsquaters; settings: soil treatment before germination, examined after 3 weeks
Text: as §4, §7
(§9) Wettable powders containing the object compounds (1) as identified in Table 1, which were formulated following Preparation Example 2, were diluted with adequate amount of water to secure the prescribed dose of the active ingredient, and uniformly sprayed onto the surface soil layer after the seeding and before germination of the weeds, at an application water of 15 liters per are.
as §8
(§10) Evaluations of the herbicidal effect and phytotoxicity were made in the manner similar to those in the above Test Example 1.

[6] = system: velvetleaf (Abutilon theophrasti); assay: Soil treatment test for upland field (Test Example 2): velvetleaf; settings: soil treatment before germination, examined after 3 weeks
Text: as §4, §7, §9, §8, §10

[7] = system: slender amaranth (Amaranthus viridis); assay: Soil treatment test for upland field (Test Example 2): slender amaranth; settings: soil treatment before germination, examined after 3 weeks
Text: as §4, §7, §9, §8, §10

corn [8] = assay: Soil treatment test for upland field (Test Example 2): phytotoxicity to corn; settings: soil treatment before germination, examined after 3 weeks
Text: as §1, §7, §8

[9] = system: common purslane (Portulaca oleracea); assay: Soil treatment test for upland field (Test Example 2): common purslane; settings: soil treatment before germination, examined after 3 weeks
Text: as §4, §7, §9, §8, §10

[10] = system: southern crabgrass (Digitaria ciliaris); assay: Soil treatment test for upland field (Test Example 2): southern crabgrass; settings: soil treatment before germination, examined after 3 weeks
Text: as §4, §7, §9, §8, §10

wheat [11] = assay: Soil treatment test for upland field (Test Example 2): phytotoxicity to wheat; settings: soil treatment before germination, examined after 3 weeks
Text: as §1, §7, §8

## COCC(=Cc1cccc(C(F)(F)F)c1)c1nc2cc(C#N)c(F)cc2o1 [Compound 117]
Wheat [1]; dose 2.5 g ai/a
  Phytotoxicity wheat: 0
Wheat [1]; dose 5 g ai/a
  Phytotoxicity wheat: 0
velvetleaf; dose 2.5 g ai/a
  Herbicidal Effect velvetleaf: 4 (80%-less than 100%)
velvetleaf; dose 5 g ai/a
  Herbicidal Effect velvetleaf: 5 (100%)
Common purslane; dose 2.5 g ai/a
  Herbicidal Effect common purslane: 5 (100%)
Common purslane; dose 5 g ai/a
  Herbicidal Effect common purslane: 5 (100%)
Soybean [2]; dose 2.5 g ai/a
  Phytotoxicity soybean: 0
Soybean [2]; dose 5 g ai/a
  Phytotoxicity soybean: 1
Southern crabgrass; dose 2.5 g ai/a
  Herbicidal Effect southern crabgrass: 4 (80%-less than 100%)
Southern crabgrass; dose 5 g ai/a
  Herbicidal Effect southern crabgrass: 5 (100%)
Slender amaranth; dose 2.5 g ai/a
  Herbicidal Effect slender amaranth: 5 (100%)
Slender amaranth; dose 5 g ai/a
  Herbicidal Effect slender amaranth: 5 (100%)
Corn [3]; dose 2.5 g ai/a
  Phytotoxicity corn: 0
Corn [3]; dose 5 g ai/a
  Phytotoxicity corn: 1
Common lambsquaters; dose 2.5 g ai/a
  Herbicidal Effect Common lambsquatters: 5 (100%)
Common lambsquaters; dose 5 g ai/a
  Herbicidal Effect Common lambsquatters: 5 (100%)

## CCOCC(=Cc1cccc(C(F)(F)F)c1)c1nc2cc(F)c(F)cc2o1 [Compound 127]
Soybean [4]; dose 2.5 g ai/a
  Phytotoxicity soybean: 0
Soybean [4]; dose 5 g ai/a
  Phytotoxicity soybean: 0
[5]; dose 2.5 g ai/a
  Herbicidal Effect common lambsquaters: 5 (100%)
[5]; dose 5 g ai/a
  Herbicidal Effect common lambsquaters: 5 (100%)
[6]; dose 2.5 g ai/a
  Herbicidal Effect velvetleaf: 3 (60%-less than 80%)
[6]; dose 5 g ai/a
  Herbicidal Effect velvetleaf: 5 (100%)
[7]; dose 2.5 g ai/a
  Herbicidal Effect slender amaranth: 5 (100%)
[7]; dose 5 g ai/a
  Herbicidal Effect slender amaranth: 5 (100%)
Corn [8]; dose 2.5 g ai/a
  Phytotoxicity corn: 0
Corn [8]; dose 5 g ai/a
  Phytotoxicity corn: 0
[9]; dose 2.5 g ai/a
  Herbicidal Effect common purslane: 5 (100%)
[9]; dose 5 g ai/a
  Herbicidal Effect common purslane: 5 (100%)
[10]; dose 2.5 g ai/a
  Herbicidal Effect southern crabgrass: 4 (80%-less than 100%)
[10]; dose 5 g ai/a
  Herbicidal Effect southern crabgrass: 5 (100%)
Wheat [11]; dose 2.5 g ai/a
  Phytotoxicity wheat: 0
Wheat [11]; dose 5 g ai/a
  Phytotoxicity wheat: 0

## CCOCC(=Cc1cccc(C(F)(F)F)c1)c1nc2cc(F)c(C(F)(F)F)cc2o1 [Compound 141]
Soybean [4]; dose 2.5 g ai/a
  Phytotoxicity soybean: 0
Soybean [4]; dose 5 g ai/a
  Phytotoxicity soybean: 0
[5]; dose 2.5 g ai/a
  Herbicidal Effect common lambsquaters: 5 (100%)
[5]; dose 5 g ai/a
  Herbicidal Effect common lambsquaters: 5 (100%)
[6]; dose 2.5 g ai/a
  Herbicidal Effect velvetleaf: 3 (60%-less than 80%)
[6]; dose 5 g ai/a
  Herbicidal Effect velvetleaf: 5 (100%)
[7]; dose 2.5 g ai/a
  Herbicidal Effect slender amaranth: 5 (100%)
[7]; dose 5 g ai/a
  Herbicidal Effect slender amaranth: 5 (100%)
Corn [8]; dose 2.5 g ai/a
  Phytotoxicity corn: 0
Corn [8]; dose 5 g ai/a
  Phytotoxicity corn: 0
[9]; dose 2.5 g ai/a
  Herbicidal Effect common purslane: 5 (100%)
[9]; dose 5 g ai/a
  Herbicidal Effect common purslane: 5 (100%)
[10]; dose 2.5 g ai/a
  Herbicidal Effect southern crabgrass: 4 (80%-less than 100%)
[10]; dose 5 g ai/a
  Herbicidal Effect southern crabgrass: 5 (100%)
Wheat [11]; dose 2.5 g ai/a
  Phytotoxicity wheat: 0
Wheat [11]; dose 5 g ai/a
  Phytotoxicity wheat: 1
